Literature values, collected in article PMC8991498 (Food Chemistry: Molecular Sciences, 2021).

Tested on: Caco-2 cell monolayers

Sequence	Passage of RAP through Caco-2 cell monolayers (ref Xu et al. (2017))	Absorption of β-casein fragment (ref Regazzo et al. (2010))
YWDHNNPQIR [RAP]	a percentage of this peptide managed to pass intact through the monolayer	
YQEPVLGPVRGPFPIIV [β-casein fragment]		could be absorbed mainly by transcytosis
